In ChEMBL document CHEMBL6114939, “Identification of Dual Inhibitors Targeting Main Protease (Mpro) and Cathepsin L as Potential Anti-SARS-CoV-2 Agents” (ACS Med Chem Lett, 2024):

Tests used:
Procathepsin L [1] = molecular target: T1, Procathepsin L (Homo sapiens, UniProt P07711); assay: Inhibition of human Cathepsin L assessed as residual activity using Cbz-FR-AMC as substrate at 1 uM preincubated for 20 mins at room temperature followed by substrate addition and measured after 10 mins by FRET assay; conditions: time 30.0 min
Target sequence in this assay (P07711 114-333 limits assumed): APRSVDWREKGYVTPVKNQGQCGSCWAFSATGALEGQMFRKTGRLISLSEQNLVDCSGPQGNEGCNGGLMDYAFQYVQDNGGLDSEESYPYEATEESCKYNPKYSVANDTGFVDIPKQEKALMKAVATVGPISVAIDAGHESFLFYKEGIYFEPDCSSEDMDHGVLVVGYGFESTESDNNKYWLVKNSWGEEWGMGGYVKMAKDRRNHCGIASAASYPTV

[2] = tested on: Severe acute respiratory syndrome coronavirus 2; assay: Inhibition of N-terminal sumo/his-6 tagged SARS CoV-2 MPro (3264 to 3569 residues) extracted from Escherichia coli BL21 Gold (DE3) cells assessed as residual activity using Dabcyl-KTSAVLQSGFRKMEE-dans as substrate at 1 uM incubated for 10 mins by FRET assay relative to control
[3] = Binding affinity to N-terminal sumo/his-6 tagged SARS CoV-2 MPro (3264 to 3569 residues) extracted from Escherichia coli BL21 Gold (DE3) cells assessed as inhibition constant using Dabcyl-KTSAVLQSGFRKMEE-dans as substrate incubated for 10 mins by FRET assay; parameters: species or system Severe acute respiratory syndrome coronavirus 2
Cathepsin S = Cathepsin S (Homo sapiens, UniProt P25774); assay: Binding affinity to human Cathepsin S assessed as inhibition constant using Cbz-VVR-AMC as substrate preincubated for 20 mins at room temperature followed by substrate addition and measured after 10 mins by FRET assay
Sequence of Cathepsin S (P25774 whole entry): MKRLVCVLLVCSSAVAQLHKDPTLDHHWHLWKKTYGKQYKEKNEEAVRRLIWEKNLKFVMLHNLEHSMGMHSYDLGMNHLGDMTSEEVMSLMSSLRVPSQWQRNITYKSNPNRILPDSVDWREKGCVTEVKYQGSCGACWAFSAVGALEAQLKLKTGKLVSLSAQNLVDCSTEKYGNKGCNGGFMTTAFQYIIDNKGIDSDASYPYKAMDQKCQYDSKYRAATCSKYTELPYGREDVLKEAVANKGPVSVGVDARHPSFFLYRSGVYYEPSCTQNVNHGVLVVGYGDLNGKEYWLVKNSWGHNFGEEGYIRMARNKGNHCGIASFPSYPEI

Huh-7 = assay: Cytotoxicity against human Huh-7 cells overexpressing human ACE2 incubated for 24 hrs by MTT assay; assay type: functional
Cathepsin B = Cathepsin B (Homo sapiens, UniProt P07858); assay: Binding affinity to human Cathepsin B assessed as inhibition constant using Cbz-FR-AMC as substrate preincubated for 20 mins at room temperature followed by substrate addition and measured after 10 mins by FRET assay
Procathepsin L [4] = molecular target: T1, Procathepsin L; assay: Binding affinity to human Cathepsin L assessed as inhibition constant using Cbz-FR-AMC as substrate preincubated for 20 mins at room temperature followed by substrate addition measured after 10 mins by FRET assay
Target sequence in this assay (P07711 whole entry, the tested form may be a part): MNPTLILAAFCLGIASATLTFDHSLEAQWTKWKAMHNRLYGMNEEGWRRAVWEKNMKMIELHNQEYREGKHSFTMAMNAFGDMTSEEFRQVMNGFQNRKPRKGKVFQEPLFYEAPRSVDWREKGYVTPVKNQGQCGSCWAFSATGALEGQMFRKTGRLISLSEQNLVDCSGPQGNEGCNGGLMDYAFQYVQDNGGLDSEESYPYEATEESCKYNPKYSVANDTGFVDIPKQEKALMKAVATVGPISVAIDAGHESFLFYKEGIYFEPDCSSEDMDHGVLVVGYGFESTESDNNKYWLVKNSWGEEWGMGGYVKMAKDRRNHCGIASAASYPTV

## CC(=O)/C=C/[C@H](C[C@@H]1CCNC1=O)NC(=O)[C@H](CC(C)(C)C)NC(=O)c1cccc(F)c1
Procathepsin L [1]
  Activity: 34.7%
[2]
  Activity: 77%

## CCC[C@H](NC(=O)c1ccc(F)cc1)C(=O)N[C@H](/C=C/C(C)=O)C[C@@H]1CCNC1=O
Procathepsin L [1]
  Activity: 19.1%
[2]
  Activity: 96.5%

## CC(=O)/C=C/[C@H](C[C@@H]1CCNC1=O)NC(=O)[C@H](CC(C)C)NC(=O)c1ccc(F)cc1
Procathepsin L [1]
  Activity: 5.8%
[3]
  Ki: 5580 nM
Cathepsin S
  Ki: 6.23 nM
Huh-7
  CC50: > 100000 nM
Cathepsin B
  Ki: 10900 nM
Procathepsin L [4]
  Ki: 20 nM
[2]
  Activity: 64.9%

## CCC[C@H](NC(=O)c1cccc(F)c1)C(=O)N[C@H](/C=C/C(C)=O)C[C@@H]1CCNC1=O
Procathepsin L [1]
  Activity: 8.61%
[2]
  Activity: 101%

## CC(=O)/C=C/[C@H](C[C@@H]1CCNC1=O)NC(=O)[C@H](CC(C)C)NC(=O)c1cccc(F)c1
Procathepsin L [1]
  Activity: 10.9%
[2]
  Activity: 99.5%

## CC(=O)/C=C/[C@H](C[C@@H]1CCNC1=O)NC(=O)[C@H](CC1CC1)NC(=O)c1cccc(F)c1
Procathepsin L [1]
  Activity: 9.76%
[2]
  Activity: 92.7%

## CCOC(=O)/C=C/[C@H](C[C@@H]1CCNC1=O)NC(=O)[C@H](Cc1ccccc1)NC(=O)[C@@H](Cc1ccc(F)cc1)NC(=O)OC(C)(C)C
[3]
  Ki: 1800 nM
Procathepsin L [4]
  Ki: 145 nM

## CC(=O)/C=C/[C@H](C[C@@H]1CCNC1=O)NC(=O)[C@H](CC(C)(C)C)NC(=O)c1ccccc1F
Procathepsin L [1]
  Activity: 33.5%
[2]
  Activity: 89.4%

## CCCC[C@H](NC(=O)c1cccc(F)c1)C(=O)N[C@H](/C=C/C(C)=O)C[C@@H]1CCNC1=O
Procathepsin L [1]
  Activity: 6.81%
[2]
  Activity: 86%

## CC(=O)/C=C/[C@H](C[C@@H]1CCNC1=O)NC(=O)[C@H](CC1CCCCC1)NC(=O)c1ccc(F)cc1
Procathepsin L [1]
  Activity: 5%
[3]
  Ki: 3140 nM
Huh-7
  CC50: 46900 nM
Procathepsin L [4]
  Ki: 17 nM
[2]
  Activity: 68.2%

## CC(=O)/C=C/[C@H](C[C@@H]1CCNC1=O)NC(=O)[C@H](CC1CCCCC1)NC(=O)c1cccc(F)c1
Procathepsin L [1]
  Activity: 3.6%
[3]
  Ki: 3660 nM
Huh-7
  CC50: 22600 nM
Procathepsin L [4]
  Ki: 4 nM
[2]
  Activity: 64.2%

## CC(=O)/C=C/[C@H](C[C@@H]1CCNC1=O)NC(=O)[C@H](CC1CC1)NC(=O)c1ccc(F)cc1
Procathepsin L [1]
  Activity: 26.8%
[2]
  Activity: 83.7%

## CCCC[C@H](NC(=O)c1ccccc1F)C(=O)N[C@H](/C=C/C(C)=O)C[C@@H]1CCNC1=O
Procathepsin L [1]
  Activity: 8.66%
[2]
  Activity: 98.7%

## CC(=O)/C=C/[C@H](C[C@@H]1CCNC1=O)NC(=O)[C@H](CC(C)(C)C)NC(=O)c1ccc(F)cc1
Procathepsin L [1]
  Activity: 45.1%
[3]
  Ki: 5540 nM
Cathepsin S
  Ki: 0.7 nM
Huh-7
  CC50: > 100000 nM
Cathepsin B
  Ki: 7700 nM
Procathepsin L [4]
  Ki: 701 nM
[2]
  Activity: 68.8%

## CCC[C@H](NC(=O)c1ccccc1F)C(=O)N[C@H](/C=C/C(C)=O)C[C@@H]1CCNC1=O
Procathepsin L [1]
  Activity: 12%
[2]
  Activity: 101%

## CC(=O)/C=C/[C@H](C[C@@H]1CCNC1=O)NC(=O)[C@H](CC1CCCCC1)NC(=O)c1ccccc1F
Procathepsin L [1]
  Activity: 3.4%
[3]
  Ki: 1610 nM
Huh-7
  CC50: 12600 nM
Procathepsin L [4]
  Ki: 12 nM
[2]
  Activity: 56.3%

## CC(=O)/C=C/[C@H](C[C@@H]1CCNC1=O)NC(=O)[C@H](CC(C)C)NC(=O)c1ccccc1F
Procathepsin L [1]
  Activity: 5.3%
[2]
  Activity: 88.7%

## CC(=O)/C=C/[C@H](C[C@@H]1CCNC1=O)NC(=O)[C@H](CC1CC1)NC(=O)c1ccccc1F
Procathepsin L [1]
  Activity: 23.2%
[3]
  Ki: 2950 nM
Cathepsin S
  Ki: 95.4 nM
Huh-7
  CC50: > 100000 nM
Procathepsin L [4]
  Ki: 294 nM
[2]
  Activity: 57.9%

## CCCC[C@H](NC(=O)c1ccc(F)cc1)C(=O)N[C@H](/C=C/C(C)=O)C[C@@H]1CCNC1=O
Procathepsin L [1]
  Activity: 15.2%
[3]
  Ki: 10700 nM
Huh-7
  CC50: > 100000 nM
Procathepsin L [4]
  Ki: 141 nM
[2]
  Activity: 58.8%
